# Measurements taken from PubChem BioAssay AID463206 (Broad Institute, 2010).
# Activity calls are given as the source filed them.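 How the source made its calls: active means caspase luminescence falls with dose and the half-maximal concentration AC50 from the fitted curve is at or below a set limit; inconclusive means flat fit at 30 to 70% signal loss, or invalid fit; inactive means AC50 above the limit, or signal rises instead.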
# Test system: INS-1E cytokine-induced caspase-3/7, Caspase-Glo luminescence, 48 h
# Assay: suppression of cytokine-driven beta-cell apoptosis – INS-1E rat cells, luminescence, orthogonal assay for beta-cell apoptosis protection project, dose response (AID 463206)
row,SMILES,AC50
1,Cc1cc(N/N=C/c2ccc(O)cc2O)nc(-c2ccccc2O)n1,> 26 µM (inactive)
2,Cc1c(C(=O)N/N=C/c2c(O)ccc3ccccc23)nnn1-c1nonc1N,> 26 µM (inactive)
3,O=C(Nc1cccnc1)c1ccc([N+](=O)[O-])s1,> 26 µM (inactive)
4,CC(=O)c1c(C)[nH]c(C(=O)OCC(=O)Nc2ccc(C)cc2[N+](=O)[O-])c1C,> 26 µM (inactive)
5,O=C(Nc1cccc(Cl)c1)Nc1nnc(-c2ccncc2)s1,> 26 µM (inactive)
6,NC(N)=N/N=C/c1ccc(OCc2ccccc2)cc1,> 26 µM (inactive)
7,Cc1nn(C)c(C)c1CN(Cc1nc(CCC(C)C)no1)C(C)C,> 26 µM (inactive)
8,O=C(NCc1ccccc1)C1=C[C@H](c2csc3ccccc23)C[C@H](OCCCCO)O1,> 26 µM (inactive)
9,CCOc1ccc(OCc2ccc(C(=O)N/N=C(\C)c3ccccn3)cc2)cc1,> 26 µM (inactive)
10,COc1ccc(C(=O)N/N=C/c2sc3ccccc3c2O)cc1,> 26 µM (inactive)
11,CCCCC1CCC(C(=O)N(CC(C)C)c2c(N)n(Cc3ccccc3)c(=O)[nH]c2=O)CC1 (stereo not given),> 26 µM (inactive)
12,C/C(=N\NC(=O)c1cccc(Br)c1)c1ccccn1,> 26 µM (inactive)
13,C1CCC(C(CC2CCCCN2)C2CCCCC2)CC1 (stereo not given),> 26 µM (inactive)
14,COc1ccc(NC(=O)c2c(Nc3ccccc3)sc(C(=O)c3ccc(F)cc3)c2N)cc1,> 26 µM (inactive)
15,Cc1ccc(NC(=O)CCC(=O)N/N=C/c2ccc([N+](=O)[O-])o2)cc1C,> 26 µM (inactive)
16,COc1ccccc1N1C(C)=CC(=C(C#N)c2nc3ccccc3s2)C=C1C,> 26 µM (inactive)
17,CCCCCCC[n+]1ccc(-c2cc[n+](CCCCCCC)cc2)cc1,> 26 µM (inactive)
18,CN(C)C(=O)c1ccc(NC(=O)c2cccc(S(=O)(=O)N3CCCCCC3)c2)cc1,> 26 µM (inactive)
19,CC1CCN(Cc2c(C(=O)N/N=C/c3cc(Cl)ccc3O)nnn2-c2nonc2N)CC1,> 26 µM (inactive)
20,COc1ccc(O)c(/C=N/NC(=O)c2ccc(CSc3nc(C)cc(C)n3)cc2)c1,> 26 µM (inactive)
21,NNc1ncnc2scc(-c3ccc(Cl)cc3)c12,> 26 µM (inactive)
22,Cc1cc([N+](=O)[O-])c2ccccc2[n+]1[O-],> 26 µM (inactive)
23,CCc1ccc2[nH]c(=O)c(C3C(C#N)=C(N)Oc4c3ccc3cccnc43)cc2c1 (stereo not given),> 26 µM (inactive)
24,CC(C)Nc1ccc(Nc2ccnc3cc4ccccc4cc23)cc1,3.23 µM

row,SMILES,AC50
1,Oc1cc(-c2ccc(N3CCCCC3)nc2)cc2cccnc12,> 26 µM (inactive)
2,CCCCCCCCCCCCn1ccc(=N)cc1,> 26 µM (inactive)
3,O=S(=O)(NCC1CCCO1)c1ccc(-c2ccc(S(=O)(=O)NCC3CCCO3)cc2)cc1 (stereo not given),> 26 µM (inactive)
4,O=C1/C(=N\S(=O)(=O)c2cccs2)C([n+]2ccc(CCCc3ccccc3)cc2)=C([O-])c2ccccc21,> 12 µM (inactive)
5,O=S(=O)(Nc1cc(Sc2cccc3cccnc23)c(O)c2ccccc12)c1ccc(F)cc1,> 26 µM (inactive)
6,COc1ccc(-c2sc3ccccc3c2-c2ccc(OCCN3CCCCC3)cc2)cc1,> 26 µM (inactive)
7,NC(=S)N/N=C/c1c(O)ccc2ccccc12,> 26 µM (inactive)
8,CCOc1ccc(S(=O)(=O)N(C)c2ccc(OCC(=O)Nc3nc4ccccc4s3)cc2)cc1,> 26 µM (inactive)
9,Oc1ccc(Br)cc1/C=N/Nc1ccccn1,> 26 µM (inactive)
10,COc1ccc(C(=O)NN/C(C)=C/C(=O)C(F)(F)C(F)(F)C(F)(F)F)cc1,> 26 µM (inactive)
11,O=C(c1cnc(N2CCN(c3ccccn3)CC2)c2ccccc12)N1CCN(c2cccc(Cl)c2)CC1,> 26 µM (inactive)
12,CC[C@H](C)Cc1cn([C@@H](CCCCNC(=O)OC(C)(C)C)C(=O)NCCCCCCCCCCC(=O)N2CCN(C(=O)OC(C)(C)C)CC2)nn1,> 26 µM (inactive)
13,Oc1ccc(/C=N/Nc2ncc(Br)cn2)c(O)c1,> 26 µM (inactive)
14,C=C1C(=O)O[C@@H]2C[C@@H](C)[C@@H]3C=CC(=O)[C@@]3(C)[C@@H](O)[C@H]12,> 26 µM (inactive)
15,N#C/C(=C\c1ccc([N+](=O)[O-])o1)c1nc2ccccc2[nH]1,> 26 µM (inactive)
16,O=C(NCC#CCSc1nnc(-c2cccc3ccccc23)o1)c1cccs1,> 26 µM (inactive)
17,COc1cccc(F)c1C(C[N+](=O)[O-])c1c(N)n(C)c(=O)n(C)c1=O (stereo not given),> 26 µM (inactive)
18,O=C(Nc1nc2ccc([N+](=O)[O-])cc2s1)c1ccc(S(=O)(=O)N2CCCc3ccccc32)cc1,> 26 µM (inactive)
19,O=C1/C(=C/c2cccnc2)CCC/C1=C\c1cccnc1,> 26 µM (inactive)
20,Cc1occc1C(=O)N/N=C/c1ccc2c(c1)OCO2,> 26 µM (inactive)
21,Cc1cccc(C)c1NC(=O)CNC(=O)c1c(C)nn(C)c1Cl,> 26 µM (inactive)
22,COc1cccc(-c2nc(-c3ccc(NC(=O)c4cccnc4)cc3)no2)c1,> 26 µM (inactive)
23,CCCCCCCNC1=CC(=O)CC(c2ccccc2)C1 (stereo not given),> 12 µM (inactive)
24,CCCCCCc1cc2cc(-c3nnc(-c4ccccc4O)o3)c(=O)oc2cc1O,> 26 µM (inactive)

row,SMILES,AC50
1,COC(/C(=N/O)c1ccc(Cl)cc1)c1ccccc1 (stereo not given),> 26 µM (inactive)
2,NNc1nc(-c2ccccc2)cc(-c2ccccc2O)n1,> 26 µM (inactive)
3,Cc1cccc(N=Nc2ccc(O)c3ncccc23)c1,> 26 µM (inactive)
4,CCc1c(C2(O)CCCCC2)[nH]c2cc(C(F)(F)F)ccc12,> 26 µM (inactive)
5,Cc1sc2ncnc(N3CCN(CCOc4ccc(Cl)cc4)CC3)c2c1C,> 26 µM (inactive)
6,O=C(N/N=C/c1cccnc1)c1ccc(NC(=O)C(c2ccccc2)c2ccccc2)cc1,> 26 µM (inactive)
7,COc1cc(C(=O)N/N=C(\c2ccccc2)c2ccccn2)cc(OC)c1OC,> 26 µM (inactive)
8,Cc1cc(C2CCCCC2)n(O)c(=O)c1,> 26 µM (inactive)
9,O=C(Nc1ccccc1Cl)/C(Cl)=C(\Cl)S(=O)c1ccccc1 (stereo not given),> 26 µM (inactive)
10,NC(=O)c1c(-c2ccc(Cl)cc2Cl)csc1NC(=O)Cc1ccccc1,> 26 µM (inactive)
11,O=C(N/N=C(\c1ccccc1)c1ccccn1)c1cccc([N+](=O)[O-])c1,> 26 µM (inactive)
12,Clc1ccccc1Nc1nnc(-c2ccncc2)s1,> 26 µM (inactive)
13,FC(F)(F)c1cccc(-c2nc3nc(Cl)c(Cl)nc3[nH]2)c1,> 26 µM (inactive)
14,COc1ccc(/C=N/NC(=O)c2nc(-c3ccccc3)n(-c3ccccc3)n2)c(O)c1,> 26 µM (inactive)
15,O=C(NC(Nc1nc2ccc([N+](=O)[O-])cc2s1)(C(F)(F)F)C(F)(F)F)c1ccccc1,> 26 µM (inactive)
16,CCOC(=O)c1sc(SC)c2c1CCC/C2=N/OC,> 26 µM (inactive)
17,Oc1ccccc1/C=N/Nc1nc2ccccc2o1,> 26 µM (inactive)
18,CC1CCN(Cc2c(C(=O)N/N=C/c3ccccc3O)nnn2-c2nonc2N)CC1,> 26 µM (inactive)
19,CCOC(=O)N1CCN(Cc2cc(Cl)c3cccnc3c2O)CC1,> 26 µM (inactive)
20,CCC1CCCCN1C(=O)c1cc(COc2ccc3ncccc3c2)on1 (stereo not given),> 26 µM (inactive)
21,Cc1ccc(-c2nn(-c3ccccc3)cc2/C=C/C(=O)Nc2cccc(S(N)(=O)=O)c2)cc1,> 26 µM (inactive)
22,O=C(N/N=C/c1cccnc1)c1ccccc1NS(=O)(=O)c1cccs1,> 26 µM (inactive)
23,CN(c1ccccc1)c1ccc(/C=C/[N+](=O)[O-])cc1,> 26 µM (inactive)
24,Cc1ccc(NC(=O)COc2ccc(N(C)C(=O)C(C)(C)C)cc2)cc1S(=O)(=O)N1CCCCC1,> 26 µM (inactive)

row,SMILES,AC50
1,COc1cc(C(=O)N/N=C(\C)c2ccccn2)cc(OC)c1OC,> 26 µM (inactive)
2,NC(N)=N/N=C/c1cn(-c2ccccc2)nc1-c1cccs1,> 26 µM (inactive)
3,Cc1oc(/N=C/c2ccccc2)c(C#N)c1C,> 26 µM (inactive)
4,Cc1ccc(-c2cc(-c3ccc(C)cc3)[n+](-c3ccc(C(=O)[O-])cc3)c(-c3ccc(C)cc3)c2)cc1,> 26 µM (inactive)
5,CC(C)(C)c1nnc(N/N=C/c2cc(Br)ccc2O)n(N)c1=O,> 26 µM (inactive)
6,CCCCC1(Cc2ccc([N+](=O)[O-])cc2)C(=O)N(c2ccccc2)N(c2ccccc2)C1=O,> 26 µM (inactive)
7,Cc1oc2c(c1C(=O)N1CCOCC1)C(=O)c1ccccc1C2=O,> 26 µM (inactive)
8,O=C(NCC(c1ccco1)N1CCCC1)c1ccc(Cl)c(S(=O)(=O)N2CCc3ccccc32)c1 (stereo not given),> 26 µM (inactive)
9,C=C1C(=O)O[C@@H]2C[C@@H](C)[C@@H]3C=CC(=O)[C@@]3(C)[C@@H](OC(C)=O)[C@H]12,> 26 µM (inactive)
10,COc1ccc(-c2nc3ccc(C)cn3c2NCc2ccccc2)cc1SC1CCCCC1,> 26 µM (inactive)
11,CCCCCCCCCCOC(=O)Cn1c(COc2ccc(C)cc2)[n+](C)c2ccccc21,> 26 µM (inactive)
12,Cc1ccc(-c2c[n+](Cc3ccc(Cl)cc3)c3n2CCC3)cc1,> 26 µM (inactive)
13,Cc1ccc(C[n+]2cccc(-c3ccccc3)c2)c(C)c1,> 26 µM (inactive)
14,COc1ccc(-n2cc(-c3ccc(C)cc3)[n+]3c2SCC3)cc1,> 26 µM (inactive)
15,Cc1ccnc(NC(=O)c2ccc([N+](=O)[O-])s2)c1,> 26 µM (inactive)
16,CCC(=O)NC(c1cccs1)c1cc(Cl)c2cccnc2c1O (stereo not given),> 26 µM (inactive)
17,Cc1cccc(/C=N/NC(=O)c2ccc3c(c2)OCCO3)c1O,> 26 µM (inactive)
18,CC(=O)Cc1cc(O)c2ccccc2c1OC(=O)c1ccc(Br)cc1,> 26 µM (inactive)
19,CC1Cc2cc(S(=O)(=O)N3CCC(C(=O)N4CCN(c5ccccc5F)CC4)CC3)ccc2N1C(=O)C1CC1 (stereo not given),> 26 µM (inactive)
20,COc1ccc(S(=O)(=O)N(C(=O)c2ccco2)c2cc3sc(=O)oc3c3ccccc23)cc1,> 26 µM (inactive)
21,Cc1cc(C(=O)N/N=C/c2cc(Br)cc(Br)c2OC(=O)c2cccc(F)c2)n[nH]1,> 26 µM (inactive)
22,C/C(=N\NC(=O)c1ccc(F)cc1)c1ccccn1,> 26 µM (inactive)
23,Cc1cc(F)ccc1S(=O)(=O)Nc1ccccc1C(=O)Nc1ccccc1-c1nc2ccccc2[nH]1,> 26 µM (inactive)
